For the assay, the target named is human TRPA1 (Homo sapiens (Human), UniProt O75762). The assay can be described thus: hTRPA1 CHO Ca2+ FLIPR assay (block of cinnamaldehyde induced calcium influx). The format is cell-based. As to conditions: CHO cells expressing TRPA1; 75 uM cinnamaldehyde; Hill coefficient fixed to 1.5; read-out: hTRPA1 (hTRPA1 CHO Ca2+ MAX EVO (IC50)). The protocol:
CHO cells expressing TRPA1 were plated into 384-well plates, incubated overnight at 37° C., and loaded with BD calcium indicator dye for 1 hr at 37° C. followed by 15 minutes at room temperature. The assay buffer was Hank's Balanced Salt Solution (HBSS) containing 20 mM HEPES (pH readjusted to 7.4) along with 0.02% BSA.
Following dye load and plate cool down, compounds were added to the cells using FLIPR Tetra. Plates were then incubated with compounds for 20 minutes at room temperature prior to adding agonist.
The IC50 results were fit with a standard Hill function, keeping the Hill coefficient (n) fixed to 1.5. Fixing the Hill coefficient will generally reduce variability of the IC50 determination. The IC50 results were individually examined to make sure the MIN and MAX points were set correctly prior to validation of the results.

Chain of human TRPA1 (O75762 whole entry): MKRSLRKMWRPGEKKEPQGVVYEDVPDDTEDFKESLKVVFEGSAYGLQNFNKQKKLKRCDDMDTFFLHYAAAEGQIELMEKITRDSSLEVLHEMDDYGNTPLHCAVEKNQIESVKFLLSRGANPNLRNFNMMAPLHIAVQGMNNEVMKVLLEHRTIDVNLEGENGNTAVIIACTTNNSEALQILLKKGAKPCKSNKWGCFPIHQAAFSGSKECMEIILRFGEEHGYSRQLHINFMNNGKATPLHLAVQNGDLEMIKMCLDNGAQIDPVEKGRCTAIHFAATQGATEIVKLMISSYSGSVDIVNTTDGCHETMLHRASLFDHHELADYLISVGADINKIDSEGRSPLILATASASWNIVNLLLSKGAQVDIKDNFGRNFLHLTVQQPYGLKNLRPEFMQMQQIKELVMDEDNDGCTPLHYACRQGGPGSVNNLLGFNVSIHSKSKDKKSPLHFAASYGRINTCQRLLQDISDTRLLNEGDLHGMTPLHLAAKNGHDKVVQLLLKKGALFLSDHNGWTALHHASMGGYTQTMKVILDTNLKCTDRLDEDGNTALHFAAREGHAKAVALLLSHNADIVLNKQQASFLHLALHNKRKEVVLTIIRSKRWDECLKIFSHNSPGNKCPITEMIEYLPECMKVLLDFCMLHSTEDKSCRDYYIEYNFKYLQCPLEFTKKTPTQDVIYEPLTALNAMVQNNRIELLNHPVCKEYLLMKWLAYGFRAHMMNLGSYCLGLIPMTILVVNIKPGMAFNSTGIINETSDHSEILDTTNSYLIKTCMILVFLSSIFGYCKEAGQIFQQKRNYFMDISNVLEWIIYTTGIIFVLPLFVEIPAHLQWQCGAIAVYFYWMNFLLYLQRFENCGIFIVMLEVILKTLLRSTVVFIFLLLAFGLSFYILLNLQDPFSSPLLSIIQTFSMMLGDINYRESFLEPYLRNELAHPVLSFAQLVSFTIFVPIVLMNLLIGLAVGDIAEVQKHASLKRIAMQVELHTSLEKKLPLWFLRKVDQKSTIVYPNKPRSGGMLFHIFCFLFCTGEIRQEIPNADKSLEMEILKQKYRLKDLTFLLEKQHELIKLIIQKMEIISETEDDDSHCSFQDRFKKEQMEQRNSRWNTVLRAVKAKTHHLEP

As to `Cc1ccnc2ncn(Cc3nn(CCc4ccc(C#N)cc4)c(=O)o3)c(=O)c12` [compound 8, 4-[2-[5-[(5-methyl-4-oxo-pyrido[2,3-d]pyrimidin-3-yl)methyl]-2-oxo-1,3,4-oxadiazol-3-yl]ethyl]benzonitrile], the IC50 was determined as 166 nM.

Consider `Cn1cnc2ncn(Cc3nn(CCc4ccc(Cl)cc4)c(=O)o3)c(=O)c21` [compound 1, 3-[2-(4-chlorophenyl)ethyl]-5-[(7-methyl-6-oxo-purin-1-yl)methyl]-1,3,4-oxadiazol-2-one], for which the IC50 is 95 nM.

Regarding `Cn1cnc2ncn(Cc3nn(C[C@@H]4CCc5ccc(Cl)cc54)c(=O)o3)c(=O)c21` [compound 48], the IC50 stood at 196 nM.

As for `Cn1cnc2c(C#N)nn(Cc3nn(CCc4ccc(OC(F)F)cc4)c(=O)o3)c2c1=O` [compound 32, 1-[(4-[2-[4-(difluoromethoxy)phenyl]ethyl]-5-oxo-4,5-dihydro-1,3,4-oxadiazol-2-yl)methyl]-6-methyl-7-oxo-1H,6H,7H-pyrazolo[4,3-d]pyrimidine-3-carbonitrile], the IC50 worked out at 36 nM.

Consider `Cn1cnc2ncn(Cc3nn([C@H]4C[C@H](c5ccc6ccccc6c5)C4)c(=O)o3)c(=O)c21` [compound 113, 5-[(7-methyl-6-oxo-purin-1-yl)methyl]-3-[3-(2-naphthyl)cyclobutyl]-1,3,4-oxadiazol-2-one], for which the IC50 was found to be 17.8 nM.

Consider `Cc1ccnc2ncn(Cc3nn(CCCOc4cccc(Cl)c4)c(=O)o3)c(=O)c12` [compound 85, 3-(3-(3-chlorophenoxy)propyl)-5-((5-methyl-4-oxopyrido[2,3-d]pyrimidin-3(4H)-yl)methyl)-1,3,4-oxadiazol-2(3H)-one], for which the concentration for half-maximal inhibition (IC50) was 6.34 nM.

Regarding `Cn1cnc2ncn(Cc3nn([C@H]4C[C@H](c5ccc(C(F)(F)F)cc5)C4)c(=O)o3)c(=O)c21` [compound 111, 5-[(7-methyl-6-oxo-purin-1-yl)methyl]-3-[3-[4-(trifluoromethyl)phenyl]cyclobutyl]-1,3,4-oxadiazol-2-one], the IC50 was 90 nM.

For the compound `Cn1cnc2ncn(Cc3nn(CCc4ccc(C(F)(F)F)cc4)c(=O)o3)c(=O)c21` [compound 9, 5-((7-methyl-6-oxo-6H-purin-1(7H)-yl)methyl)-3-(4-(trifluoromethyl)phenethyl)-1,3,4-oxadiazol-2(3H)-one], the IC50 is 582 nM.

Take `Cn1cnc2ncn(Cc3nn(CCc4ccc(C(F)F)cc4)c(=O)o3)c(=O)c21` [compound 18, 3-(4-(difluoromethyl)phenethyl)-5-((7-methyl-6-oxo-6H-purin-1(7H)-yl)methyl)-1,3,4-oxadiazol-2(3H)-one]: the IC50 is 509 nM.

For the compound `Cc1noc2ncn(Cc3nn([C@H]4C[C@H](c5ccc(Cl)cc5)C4)c(=O)o3)c(=O)c12` [compound 91, 5-[[4-[3-(4-chlorophenyl)cyclobutyl]-5-oxo-1,3,4-oxadiazol-2-yl]methyl]-3-methyl-isoxazolo[5,4-d]pyrimidin-4-one], the IC50 turned out to be 36.2 nM.

Consider `Cc1ccnc2ncn(Cc3nn([C@H]4C[C@H](c5ccc6ncccc6c5)C4)c(=O)o3)c(=O)c12` [compound 66, 5-[(5-methyl-4-oxo-pyrido[2,3-d]pyrimidin-3-yl)methyl]-3-[3-(6-quinolyl)cyclobutyl]-1,3,4-oxadiazol-2-one], for which the half-maximal inhibitory concentration (IC50) was determined as 12.5 nM.

For `Cn1cnc2ncn(Cc3nn(CCc4cccc(-c5ccccc5)c4)c(=O)o3)c(=O)c21` [compound 24, 7-methyl-1-([5-oxo-4-[2-(3-phenylphenyl)ethyl]-4,5-dihydro-1,3,4-oxadiazol-2-yl]methyl)-6,7-dihydro-1H-purin-6-one], the IC50 came out at 338 nM.

`Cc1cnc(C#N)c2ncn(Cc3nn(CCc4ccc(Cl)cc4)c(=O)o3)c(=O)c12` [compound 43]: the 50% inhibitory concentration (IC50) turned out to be 18 nM.

Turning to `Cc1cnc(Cl)c2ncn(Cc3nn(CCc4ccc(Cl)cc4)c(=O)o3)c(=O)c12` [compound 40, 5-((8-chloro-5-methyl-4-oxopyrido[3,4-d]pyrimidin-3(4H)-yl)methyl)-3-(4-chlorophenethyl)-1,3,4-oxadiazol-2(3H)-one], the IC50 came out at 18 nM.

As usually defined, the IC50 is the point on the concentration scale where inhibition reaches its midpoint.

(Values after patent US10913742B2, “Oxadiazolones as transient receptor potential channel inhibitors” (Genentech, Inc., priority 2017, dated 2021).)
